The source of these data is patent US20240368174A1, “Antiviral Heterocyclic Compounds” (Enanta Pharmaceuticals, Inc., priority 2023, published 2024).

SMILES strings stand for the structures. Where only a bound is given, the exact number is not on record here.

Experiment [1] relates to HMPV clinical isolate A2 strain TN 94-49. Nature of the experiment: HMPV antiviral assay, Method 2 (LLC-MK2 cells with CP-100-356, ATP-Lite). In kind it is cell-based. The note with it: human metapneumovirus; hMPV A2 TN/94-49, LLC-MK2 cells with CP-100-356, Method 2. In a few lines: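 LLC-MK2 rhesus kidney cells (5,000/well) infected in suspension with HMPV A2 TN 94-49 at MOI 0.16, in serum-free medium with final 2 μg/mL TPCK-trypsin and 2 μM CP-100-356. Compounds tested in duplicate from 200 nM, 2.5-fold, 10 points; 7 days at 37 °C. Cell health by ATP-Lite luminescence; EC50 by four-parameter fit.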

Experiment [2] has the same test system. Nature of the experiment: HMPV antiviral assay, Method 1 (LLC-MK2 cells, ATP-Lite). In kind it is cell-based. The conditions noted are these: human metapneumovirus, hMPV A2 TN/94-49, LLC-MK2 cells. How it is done:
In vitro HMPV antiviral activity was evaluated using the clinical isolate A2 strain TN 94-49 (obtained from Dr. John Williams, Vanderbilt University, Tennessee) and LLC-MK2 cells (ATCC #CCL-7), an immortalized kidney epithelial cell line from Macaca mulatta. Compounds were resuspended in dimethyl sulfoxide (DMSO) at 10 mM, serially diluted and added to a 384-well source plate. Subsequently, the compounds were diluted and transferred onto 384-well assay plates using the Echo-650 automated liquid handling system (Beckman Coulter, Indiana). The test compounds were assessed in duplicate at a top concentration of 2 μM followed by 2.5-fold serial dilutions to give a total of 10 concentration points. DMSO control wells were also included on the assay plates and were either infected or not, acting as positive and negative controls. A2 TN 94-49 virus infections were performed in-suspension with LLC-MK2 cells. The cells were washed twice with PBS and removed from the cell-culture flask with 0.25% trypsin-EDTA (Thermo Fisher Scientific, MA). The trypsin-EDTA was inactivated by resuspending in 2% fetal bovine serum (FBS) and OptiMEM (ThermoFisher Scientific, MA) containing 1% penicillin-streptomycin. Cells were pelleted by centrifuging for 5 minutes at 800 rpm, the supernatant was removed, and cells were re-suspended and washed in PBS plus 100 μg/mL CaCl2). This step was performed twice. Cells were then re-suspended in serum-free (SF)-OptiMEM containing 4 μg/mL TPCK-Trypsin (Sigma Aldrich, MO), 1% penicillin-streptomycin (ThermoFisher Scientific, MA) and 100 μg/mL CaCl2). Cells were counted and seeded at a density of 5,000 cells/well, 12.5 μL/well. Virus infections were done at a multiplicity of infection (MOI) of 0.005 with 12.5 μL added per well. Virus infections were performed in infection media which contained SF-OptiMEM, 100 μg/mL CaCl2) and 1% penicillin-streptomycin. HMPV viral stocks are suspended in infection media+5% glycerol, thus an equal volume of infection media+5% glycerol was added to uninfected wells to equalize the final % glycerol across all wells of the assay plate. The final concentration of TPCK-trypsin was 2 μg/mL. The assay plates were incubated at 37° C., 5% CO2 for 7 days. After 7 days incubation, 12.5 μL of ATP-Lite (PerkinElmer, MA) was added to each well and the raw luminescence values were determined using the Envision 2104 (Perkin Elmer, MA). The average of the raw luminescence values for the cells and virus only positive control wells was subtracted from all conditions tested and the percent cell health was determined by dividing these values by the average of the cells only negative control wells. EC50 values were then calculated by non-linear regression using a four-parameter curve logistic equation. The curve fit model employed was XLFit Dose Response One Site Model 200: y=(A+(B/(1+((x/C)^D)))), where A is the minimum y value, B is the maximum y value, C is the log EC50 value, and D is the slope factor.

The EC50 is the concentration at which the effect is half-maximal. A high value points to weaker potency. On to `COc1cc(C(=O)NC[C@@](O)(c2ccccc2)c2cc3c(c(-c4cc(Cl)c(F)cc4F)n2)OC[C@]3(C)C(N)=O)cc2sc(N)nc12` [Example 157], for which the EC50 in experiment [1] is under 0.2 µM; in experiment [2], under 0.5 µM.
Taken in the same sequence, the figures for `C[C@]1(C(N)=O)COc2c1cc([C@@](O)(CNC(=O)c1cc(OCCO)c3nn(C4CC4)cc3c1)C1CC1)nc2-c1ccc(F)c(Cl)c1F` [Example 37] were under 0.2 µM and over 0.5 µM.
The like results for `COc1cc(C(=O)NC[C@@](O)(c2ccc(F)cc2)c2cc3c(c(-c4ccc5c(c4Cl)OC(F)(F)O5)n2)OC[C@]3(C)C(N)=O)cc2cn(C(F)F)nc12` [Example 264] were, in that order, under 0.2 µM and under 0.5 µM.
On to `COc1cc(C(=O)NC[C@@](O)(c2ccc(F)cc2)c2cc3c(c(-c4ccc(F)c(Cl)c4Cl)n2)OC[C@]3(C)C(N)=O)cc2cn(C3(F)CC3)nc12` [Example 43], for which the EC50 was under 0.2 µM in experiment [1] and under 0.5 µM in experiment [2].
For the molecule `[2H]C([2H])([2H])c1nc2ccc(C(=O)NC[C@@](O)(c3cccc(F)c3)c3cc4c(c(-c5ccc6c(c5Cl)OC(F)(F)O6)n3)OC[C@]4(C)C(N)=O)cc2o1` [Example 282], the EC50 in experiment [1] is under 0.2 µM; in experiment [2], under 0.5 µM.
Turning to `COc1cc(C(=O)NC[C@](O)(c2cc3c(c(-c4cc(F)c(F)cc4F)n2)OC[C@]3(C)C(N)=O)C2CC2)cc2cc(C)c(F)nc12` [Example 21], the values for the EC50 in experiment [1] and in experiment [2] were under 0.2 µM and under 0.5 µM, respectively.
Taken in the same sequence, the figures for `C[C@]1(C(N)=O)COc2c1cc([C@@](O)(CNC(=O)c1cc(OC3CC3)n3nc(C4CC4)cc3c1)C1CC1)nc2-c1cc(Cl)c(F)cc1F` [Example 4] were under 0.2 µM and under 0.5 µM.
As to `COc1cc(C(=O)NC[C@@](O)(c2cccc(F)c2)c2cc3c(c(-c4ccc5c(c4Cl)OC(F)(F)O5)n2)OC[C@]3(C)C(N)=O)cc2cn(C(F)F)nc12` [Example 276], the EC50 in experiment [1] was under 0.2 µM; in experiment [2] it was under 0.5 µM.
Taken in the same sequence, the figures for `COc1cc(C(=O)NC[C@@](O)(c2cccc(F)c2)c2cc3c(c(-c4cccc(Cl)c4Cl)n2)OC[C@]3(C)C(N)=O)cc2oc(C)nc12` [Example 293] were under 0.2 µM and under 0.5 µM.
In the case of `COc1cc(C(=O)NC[C@@](O)(c2ccccc2)c2cc3c(c(-c4ccc5c(c4)OC(F)(F)O5)n2)OC[C@]3(C)C(N)=O)cc2cn(C3(F)CC3)nc12` [Example 19], the EC50 in experiment [1] is under 0.2 µM; in experiment [2], under 0.5 µM.
Taken in the same sequence, the figures for `COc1cc(C(=O)NC[C@@](O)(c2cccc(F)c2)c2cc3c(c(-c4cc(C(F)(F)F)c(F)cc4F)n2)OC[C@]3(C)C(N)=O)cc2cn(C3(F)CC3)nc12` [Example 296] were under 0.2 µM and under 0.5 µM.
Taken in the same sequence, the figures for `COc1cc(C(=O)NC[C@@](O)(c2cccnc2)c2cc3c(c(-c4cc(Cl)c(F)cc4F)n2)OC[C@]3(C)C(N)=O)cc2cn(C3CC3)nc12` [Example 131] were under 0.2 µM and under 0.5 µM.
`[2H]C([2H])([2H])c1nc2c(OC)cc(C(=O)NC[C@@](O)(c3ccccc3)c3cc4c(c(-c5ccc6c(c5)OC(F)(F)O6)n3)OC[C@]4(C)C(N)=O)cc2s1` [Example 9] displayed a concentration giving a half-maximal response (EC50) in experiment [2] of under 0.5 µM.
Still for that read-out and setting: the result for `[2H]C([2H])([2H])c1nc2c(OC)cc(C(=O)NC[C@@](O)(c3ccc(F)cc3)c3cc4c(c(-c5ccc6c(c5Cl)OC(F)(F)O6)n3)OC[C@]4(C)C(N)=O)cc2s1` [Example 27] reads under 0.5 µM.
Same read-out and setting: the value for `C[C@]1(C(N)=O)COc2c1cc([C@@](O)(CNC(=O)c1ccc3nc(N)sc3c1)c1ccccc1)nc2-c1ccc2c(c1Cl)OC(F)(F)O2` [Example 256] was under 0.5 µM; that for `COc1cc(C(=O)NC[C@](O)(c2cc3c(c(-c4cc(Cl)cc(Cl)c4Cl)n2)OC[C@]3(C)C(N)=O)C2CC2)cc2cn(C3CC3)nc12` [Example 61] was under 0.5 µM.
In turn, `COc1cc(C(=O)NC[C@](O)(c2cc3c(c(-c4cc(Cl)c(F)cc4F)n2)OC[C@]3(C)C(N)=O)C2CC2)cc2cc(C(F)(F)F)cnc12` [Example 1] showed an EC50 in experiment [2] of over 0.5 µM.
In experiment [2], `[2H]c1nc2c(OC)cc(C(=O)NC[C@](O)(c3cc4c(c(-c5cc(F)c(F)cc5F)n3)OC[C@]4(C)C(N)=O)C3CC3)cc2cc1Br` [Example 30] yielded an EC50 of under 0.5 µM.
The same measure, in the same setting: the value for `[2H]C([2H])([2H])c1cc2cc(C(=O)NC[C@](O)(c3cc4c(c(-c5cc(Cl)c(F)cc5F)n3)OC[C@]4(C)C(N)=O)C3CC3)cc(OC)c2nc1C([2H])([2H])[2H]` [Example 29] was under 0.5 µM; that for `COc1cc(C(=O)NC[C@](O)(c2cc3c(c(-c4ccc(C)c(C(F)(F)F)c4)n2)OC[C@]3(C)C(N)=O)C2CC2)cc2cn(C3CC3)nc12` [Example 56] was over 0.5 µM; that for `C[C@]1(C(N)=O)COc2c1cc([C@@](O)(CNC(=O)c1cc(OC(F)F)c3nn(C4CC4)cc3c1)C1CC1)nc2-c1cc(F)c(F)cc1F` [Example 6] was under 0.5 µM.
`[2H]C([2H])([2H])c1cc2cc(C(=O)NC[C@](O)(c3cc4c(c(-c5cc(F)c(F)cc5F)n3)OC[C@]4(C)C(N)=O)C3CC3)cc(OC)c2nc1C([2H])([2H])[2H]` [Example 28]: the EC50 in experiment [2] is under 0.5 µM.
As to `COc1cc(C(=O)NC[C@](O)(c2cc3c(c(-c4ccc(F)cc4O)n2)OC[C@]3(C)C(N)=O)C2CC2)cc2cn(C3CC3)nc12` [Example 63], the EC50 in experiment [2] was over 0.5 µM.
Same read-out and setting: the result for `COc1cc(C(=O)NC[C@@](O)(c2cccc(F)c2)c2cc3c(c(-c4ccc(F)c(Cl)c4Cl)n2)OC[C@]3(C)C(N)=O)cc2oc(C)nc12` [Example 279] reads under 0.5 µM; that for `COc1cc(C(=O)NC[C@@](O)(c2ccsc2)c2cc3c(c(-c4cc(F)c(F)cc4F)n2)OC[C@]3(C)C(N)=O)cc2cn(C3CC3)nc12` [Example 177], under 0.5 µM.
`COc1cc(C(=O)NC[C@@](O)(c2ccccc2)c2cc3c(c(-c4ccc5c(c4Cl)OC(F)(F)O5)n2)OC[C@]3(C)C(N)=O)cc2cn(C(F)F)nc12` [Example 253] had an EC50 in experiment [2] of under 0.5 µM.
`COc1cc(C(=O)NC[C@](O)(c2cc3c(c(-c4cc(Cl)c(F)cc4F)n2)OC[C@]3(C)C(N)=O)C2CC2)cn2cc(C(F)F)nc12` [Example 78] displayed an EC50 in experiment [2] of over 0.5 µM.
In experiment [2], `COc1cc(C(=O)NC[C@@](O)(c2ccccc2)c2cc3c(c(-c4cc(C(F)(F)F)ccc4F)n2)OC[C@]3(C)C(N)=O)cc2cc(C3CC3)nn12` [Example 149] gave a half-maximal effective concentration (EC50) of under 0.5 µM.
Turning to `COc1cc(C(=O)NC[C@](O)(c2cc3c(c(-c4ccc5c(c4Cl)OC(F)(F)O5)n2)OC[C@]3(C)C(N)=O)C(F)(F)F)cc2cn(C3CC3)nc12` [Example 52], the EC50 in experiment [2] was over 0.5 µM.
Same read-out and setting: the value for `[2H]C([2H])([2H])c1nc2c(OC)cc(C(=O)NC[C@](O)(c3cc4c(c(-c5cc(Cl)c(F)cc5F)n3)OC[C@]4(C)C(N)=O)C3CC3)cc2s1` [Example 10] was under 0.5 µM; that for `COc1cc(C(=O)NC[C@](O)(c2cc3c(c(-c4cc(Cl)c(F)cc4F)n2)OC[C@]3(C)C(N)=O)c2ccccc2F)cc2cn(C(F)F)nc12` [Example 138] was under 0.5 µM.
Take `COc1cc(C(=O)NC[C@](O)(c2cc3c(c(-c4cc(F)c(F)cc4F)n2)OC[C@]3(C)C(N)=O)C2CC(F)(F)C2)cc2cn(C3CC3)nc12` [Example 31]: the EC50 in experiment [2] was under 0.5 µM.
With `COc1cc(C(=O)NC[C@@](O)(c2ccsc2)c2cc3c(c(-c4cc(Cl)c(F)cc4F)n2)OC[C@]3(C)C(N)=O)cc2cn(C3CC3)nc12` [Example 173], in experiment [2], the EC50 is under 0.5 µM.
Same read-out and setting: the value for `COc1cc(C(=O)NC[C@@](O)(c2ccccc2)c2cc3c(c(-c4cc(Cl)c(F)cc4F)n2)OC[C@]3(C)C(N)=O)cc2cn(C(F)F)nc12` [Example 156] was under 0.5 µM; that for `[2H]C([2H])([2H])c1nc2c(OC)cc(C(=O)NC[C@](O)(c3cc4c(c(-c5ccc(F)c(Cl)c5Cl)n3)OC[C@]4(C)C(N)=O)C3CC3)cc2cc1Br` [Example 24] was under 0.5 µM.
